From patent US20040209906A1, “Composition comprising ketanserin AND AN ALKANOYL L-CARNITINE FOR THE TREATMENT OF CRPS” (Sigma-Tau industrie Farmaceutiche Riunite S.p.A., priority 1998, published 2004)

Columns and labels:
CRPS [1] = settings: in vivo; cited from earlier work
CRPS patients = experiment: intravenous ketanserin treatment of CRPS patients (bolus plus infusion); format: in vivo
Experimental: All i.v. treatments were performed after at least 15 minutes of acclimatisation at constant temperature (20-23° C.). The temperature of the affected limb was recorded with Hewlett Packard electro-skin probe between digit 4 and 5. In addition continues photoplethysmograpy of the affected hand (digit 2) or foot (digit 1), blood pressure and hearth rate were recorded. All patients received a bolus of 10 mg of ketanserin i.v. in a running saline infusion. Ketanserin administration was continued by rate of 4 mg per hour.

CRPS [2] = settings: ketanserin alone; cited from earlier work
[3] = after the intravenous treatment with ketanserin

C[S+](C)[O-] [dimethyl sulfoxide]
efficacy of therapeutic treatment in CRPS (CRPS [1]): efficacious only during acute CRPS | therapeutic result for symptoms caused by hyperpathia and allodinia (CRPS [1]): without any therapeutic result

O=C(c1ccc(F)cc1)C1CCN(CCn2c(=O)[nH]c3ccccc3c2=O)CC1 [ketanserin]
skin temperature (CRPS patients; [3]): normalised | symptom of small vein (CRPS patients; [3]): disappeared | peripheral circulation of the affected limb (CRPS patients; all patients, after the intravenous treatment with ketanserin (10 mg bolus, then 4 mg per hour)): normalised | treatment of CRPS symptoms (CRPS [2]): possible to treat most of symptoms, but not those caused by hyperpathia and allodinia
